The assay deals with MDA-MB-231 human breast cancer cells. Kind of assay: Cell proliferation assay (CellTiter-Glo, 72 hours treatment). It is filed as cell-based. The conditions noted are these: Homo sapiens, read-out: MDA-MB-231 cell proliferation assay (IC50). Here is the method: Human tumor cell lines were cultured in the appropriate media (DMEM and RPMI) supplemented with penicillin G (100 U/ml), streptomycin (100 μg/ml), 10% FBS in a humidified atmosphere of 5% CO2 maintained at 37° C. Exponentially growing cells were seeded at 2,500 cells/well in 96 well plates prior to drug treatment. The following day, cells were treated with either DMSO (vehicle control) or eIF4A inhibitors at the appropriate dose for 72 hours at 37° C. Following compound treatment, cell proliferation was assessed by CellTiter-Glo assay (Promega, Madison Wis.) according to the manufacturer's protocol. Dose-response curves were fitted by non-linear regression (sigmoidal dose response model) using KaleidaGraph (Synergy Software, Reading Pa.) and IC50 values were calculated.
To this end, IC50 values of less than 100 nM are labelled as “+++”, from 100 nM to 1000 nM are labelled as “++”, and greater than 1000 nM are labelled as “+” (NA means “not available”).

Setting [1] is: MDA-MB-231 cells, 72 hours at 37° C., CellTiter-Glo.

Like-named read-outs stand apart in the source and are kept apart here.

Regarding `O[C@]12c3ncc(Cl)cc3O[C@@]1(c1ccc(Br)cc1)[C@H](c1ccccc1)[C@H]1CO[C@H]12` (racemic) [60F, Rac-(2aS,3S,3aR,8bS,8cR)-3a-(4-bromophenyl)-6-chloro-3-phenyl-2a,3,3a,8c-tetrahydrooxeto[3″,2″:4′,5′]cyclopenta[1′,2′:4,5]furo[3,2-b]pyridin-8b(2H)-ol], the IC50 under setting [1] is more than 1000 nM. Still for that read-out and setting: next, `COc1cncc2c1[C@]1(O)[C@H](O)[C@H](CN(C)C)[C@@H](c3ccccc3)[C@]1(c1ccc(C(F)(F)F)cc1)O2` (single isomer, unassigned) [107F]: 100 to 1000 nM; `COc1nc(C#N)cc2c1[C@]1(O)[C@H](O)[C@H](CNCC(F)F)[C@@H](c3ccccc3)[C@]1(c1ccc(C#N)cc1)O2` (racemic) [197F, Rac-(5aR,6S,7S,8R,8aS)-5a-(4-cyanophenyl)-7-(((2,2-difluoroethyl)amino)methyl)-8,8a-dihydroxy-1-methoxy-6-phenyl-5a,7,8,8a-tetrahydro-6H-cyclopenta[4,5]furo[3,2-c]pyridine-3-carbonitrile]: 100 to 1000 nM. The same measure, in the same setting: next, `CCN(CC)C[C@H]1[C@@H](O)[C@@]2(O)c3c(cc(C#N)nc3OC)O[C@@]2(c2ccc(C#N)cc2)[C@@H]1c1ccccc1` (racemic) [159Fc, Rac-(5aR,6S,7S,8R,8aS)-5a-(4-cyanophenyl)-7-((diethylamino)methyl)-8,8a-dihydroxy-1-methoxy-6-phenyl-5a,7,8,8a-tetrahydro-6H-cyclopenta[4,5]furo[3,2-c]pyridine-3-carbonitrile]: less than 100 nM; `CN(C)C[C@@H]1[C@@H](O)[C@@]2(O)c3ncc(Cl)cc3O[C@@]2(c2ccc(C(F)F)cc2)[C@@H]1c1ccccc1` (single isomer, unassigned) [108F]: 100 to 1000 nM. Same read-out and setting: under `CN(C)C(=O)[C@H]1[C@@H](O)[C@@]2(O)c3cnc(C#N)cc3O[C@@]2(c2ccc(C#N)cc2)[C@@H]1c1ccccc1` (racemic) [14F, rac-(5aR,6S,7R,8R,8aS)-3-cyano-5a-(4-cyanophenyl)-8,8a-dihydroxy-N,N-dimethyl-6-phenyl-5a,7,8,8a-tetrahydro-6H-cyclopenta[4,5]furo[3,2-c]pyridine-7-carboxamide] stands 100 to 1000 nM; under `COC(=O)[C@@H]1C(c2ccccc2)[C@]2(c3ccc(I)cc3)Oc3cncc(OC)c3[C@]2(O)[C@@H]1O` (mixture of isomers) [193F, Rac-Methyl (4bS,5R,6R,7aR)-4b,5-dihydroxy-7a-(4-iodophenyl)-4-methoxy-7-phenyl-4b,6,7,7a-tetrahydro-5H-cyclopenta[4,5]furo[2,3-c]pyridine-6-carboxylate], 100 to 1000 nM. Consider `NC[C@H]1C[C@@H](c2ccccc2)[C@]2(c3ccc(Br)cc3)Oc3cc(Cl)cnc3[C@]12O` (racemic) [174F, Rac-(5aR,6S,8R,8aR)-8-(aminomethyl)-5a-(4-bromophenyl)-3-chloro-6-phenyl-5a,6,7,8-tetrahydro-8aH-cyclopenta[4,5]furo[3,2-b]pyridin-8a-ol], for which, under setting [1], the IC50 is less than 100 nM. Regarding `N#C[C@H]1[C@@H](O)[C@@]2(O)c3ncc(Cl)cc3O[C@@]2(c2ccc(Br)cc2)[C@@H]1c1ccccc1` (racemic) [27F, rac-(5aR,6S,7S,8R,8aS)-5a-(4-bromophenyl)-3-chloro-8,8a-dihydroxy-6-phenyl-5a,7,8,8a-tetrahydro-6H-cyclopenta[4,5]furo[3,2-b]pyridine-7-carbonitrile], the IC50 under setting [1] fell in the range of 100 to 1000 nM. Turning to `COC(=O)[C@@H]1[C@@H](c2ccccc2)[C@]2(c3ccc(Br)cc3)Oc3cc(Cl)cnc3[C@@]23O[C@@H]13` (racemic) [161F, Rac-methyl (1aS,2R,3S,3aR,8bS)-3a-(4-bromophenyl)-6-chloro-3-phenyl-1a,2,3,3a-tetrahydro-oxireno[2″,3″:1′,5′]cyclopenta[1′,2′:4,5]furo[3,2-b]pyridine-2-carboxylate], under setting [1], the IC50 is more than 1000 nM. `OC[C@@H]1C[C@@H](c2ccccc2)[C@]2(c3ccc(Br)cc3)Oc3cc(Cl)cnc3[C@]12O` (racemic) [166F, rac-(5aR,6S,8S,8aR)-5a-(4-bromophenyl)-3-chloro-8-(hydroxymethyl)-6-phenyl-5a,6,7,8-tetrahydro-8aH-cyclopenta[4,5]furo[3,2-b]pyridin-8a-ol]: the IC50 under setting [1] fell in the range of 100 to 1000 nM. Turning to `COc1cncc2c1[C@]1(O)[C@@H](CN(C)C)[C@H](CO)[C@@H](c3ccccc3)[C@]1(c1ccc(C#N)cc1)O2` (racemic) [206F, Rac-4-((4bR,5R,6R,7S,7aR)-5-((dimethylamino)methyl)-4b-hydroxy-6-(hydroxymethyl)-4-methoxy-7-phenyl-4b,5,6,7-tetrahydro-7aH-cyclopenta[4,5]furo[2,3-c]pyridin-7a-yl)benzonitrile], the IC50 under setting [1] is less than 100 nM. With `CN(C)C[C@H]1[C@@H](C#N)[C@@]2(O)c3ncc(Cl)cc3O[C@@]2(c2ccc(Br)cc2)[C@@H]1c1ccccc1` (racemic) [227F, Rac-(5aR,6S,7R,8S,8aR)-5a-(4-bromophenyl)-3-chloro-7-((dimethylamino)methyl)-8a-hydroxy-6-phenyl-5a,7,8,8a-tetrahydro-6H-cyclopenta[4,5]furo[3,2-b]pyridine-8-carbonitrile], the IC50 under setting [1] is more than 1000 nM. Same read-out and setting: under `CNC[C@H]1[C@@H](O)[C@@]2(O)c3c(cc(Cl)nc3OC)O[C@@]2(c2ccc(C#N)cc2)[C@@H]1c1ccccc1` (racemic) [224F, Rac-4-((5aR,6S,7S,8R,8aS)-3-chloro-8,8a-dihydroxy-1-methoxy-7-((methylamino)methyl)-6-phenyl-6,7,8,8a-tetrahydro-5aH-cyclopenta[4,5]furo[3,2-c]pyridin-5a-yl)benzonitrile] stands less than 100 nM. Consider `COc1cncc2c1[C@]1(O)[C@@H](CN3CCN(C)CC3)[C@H](CO)[C@@H](c3ccccc3)[C@]1(c1ccc(Br)cc1)O2` (racemic) [183F, Rac-(4bR,5R,6R,7S,7aR)-7a-(4-bromophenyl)-6-(hydroxymethyl)-4-methoxy-5-((4-methylpiperazin-1-yl)methyl)-7-phenyl-5,6,7,7a-tetrahydro-4bH-cyclopenta[4,5]furo[2,3-c]pyridin-4b-ol], for which the IC50 (MDA-MB-231, 72 h) is less than 100 nM. `CN(C)C[C@H]1[C@@H](O)[C@@]2(O)c3ncc(Cl)cc3O[C@@]2(c2ccc(C#N)cc2)[C@@H]1c1ccccc1` (racemic) [40Fb, rac-4-((5aR,6S,7S,8R,8aS)-3-chloro-7-((dimethylamino)methyl)-8,8a-dihydroxy-6-phenyl-6,7,8,8a-tetrahydro-5aH-cyclopenta[4,5]furo[3,2-b]pyridin-5a-yl)benzonitrile]: the IC50 under setting [1] was in the range of 100 to 1000 nM. For the molecule `CCN(C)C[C@H]1[C@@H](O)[C@@]2(O)c3c(OC)cncc3O[C@@]2(c2ccc(C#N)cc2)[C@@H]1c1ccccc1` (racemic) [74F, Rac-4-((4bS,5R,6S,7S,7aR)-6-((ethyl(methyl)amino)methyl)-4b,5-dihydroxy-4-methoxy-7-phenyl-4b,5,6,7-tetrahydro-7aH-cyclopenta[4,5]furo[2,3-c]pyridin-7a-yl)benzonitrile], the IC50 under setting [1] is less than 100 nM.

As to `COc1cncc2c1[C@]1(O)[C@H](O)[C@H](CN3CCN(C(C)=O)CC3)[C@@H](c3ccccc3)[C@]1(c1ccc(C#N)cc1)O2` (racemic) [194F, Rac-4-((4bS,5R,6S,7S,7aR)-6-((4-acetylpiperazin-1-yl)methyl)-4b,5-dihydroxy-4-methoxy-7-phenyl-4b,5,6,7-tetrahydro-7aH-cyclopenta[4,5]furo[2,3-c]pyridin-7a-yl)benzonitrile], the IC50 under setting [1] was more than 1000 nM. Still for that read-out and setting: under `COc1cncc2c1[C@]1(O)[C@H](O)[C@H](C(=O)N(C)Cc3cccnc3)[C@@H](c3ccccc3)[C@]1(c1ccc(Br)cc1)O2` (racemic) [277F, Rac-(4bS,5R,6R,7S,7aR)-7a-(4-bromophenyl)-4b,5-dihydroxy-4-methoxy-N-methyl-7-phenyl-N-(pyridin-3-ylmethyl)-4b,6,7,7a-tetrahydro-5H-cyclopenta[4,5]furo[2,3-c]pyridine-6-carboxamide] stands less than 100 nM; under `OC[C@H]1[C@@H](O)[C@@]2(O)c3ncc(Cl)cc3O[C@@]2(c2ccc(Br)cc2)[C@@H]1c1ccccc1` (racemic) [55F, Rac-(5aR,6S,7S,8R,8aS)-5a-(4-bromophenyl)-3-chloro-7-(hydroxymethyl)-6-phenyl-5a,6,7,8-tetrahydro-8aH-cyclopenta[4,5]furo[3,2-b]pyridine-8,8a-diol], 100 to 1000 nM. Same read-out and setting: under `COc1cncc2c1[C@]1(O)[C@H](O)[C@H](CN3CCNCC3)[C@@H](c3ccccc3)[C@]1(c1ccc(C#N)cc1)O2` (single isomer, unassigned) [67F] stands 100 to 1000 nM; under `COc1cncc2c1[C@]1(O)[C@@H](CN)[C@H](CO)[C@@H](c3ccccc3)[C@]1(c1ccc(C#N)cc1)O2` (racemic) [171F, Rac-4-((4bR,5R,6R,7S,7aR)-5-(aminomethyl)-4b-hydroxy-6-(hydroxymethyl)-4-methoxy-7-phenyl-4b,5,6,7-tetrahydro-7aH-cyclopenta[4,5]furo[2,3-c]pyridin-7a-yl)benzonitrile], 100 to 1000 nM. The same measure, in the same setting: under `COc1cncc2c1[C@]1(O)[C@H](O)[C@H](C(=O)N3CC(F)(F)C3)[C@@H](c3ccccc3)[C@]1(c1ccc(Br)cc1)O2` (racemic) [121F, Rac-((4bS,5R,6R,7S,7aR)-7a-(4-bromophenyl)-4b,5-dihydroxy-4-methoxy-7-phenyl-4b,6,7,7a-tetrahydro-5H-cyclopenta[4,5]furo[2,3-c]pyridin-6-yl)(3,3-difluoroazetidin-1-yl)methanone] stands 100 to 1000 nM.

The values are drawn from US10577378B2, “EIF4A-inhibiting compounds and methods related thereto” (eFFECTOR Therapeutics, Inc., priority 2015, dated 2020).
